Results published in ChEMBL document CHEMBL2380271, “Synthesis and biological evaluation of a class of quinolone triazoles as potential antimicrobial agents and their interactions with calf thymus DNA” (2013).
Converted amounts (≈) assume the structure as drawn.

Assays:
Staphylococcus aureus [1] = assay: Ratio of norfloxacin MIC to compound MIC for methicillin-resistant Staphylococcus aureus N315; format: functional
Pseudomonas aeruginosa = assay: Antibacterial activity against Pseudomonas aeruginosa by NCCLS method; format: functional
Salmonella typhi = assay: Antibacterial activity against Eberthella typhosa by NCCLS method; format: functional, Salmonella enterica subsp. enterica serovar Typhi; settings: Salmonella enterica
Cyberlindnera jadinii = assay: Antifungal activity against Candida utilis by NCCLS method; format: functional; settings: Williopsis jadinii
Escherichia coli = assay: Antibacterial activity against Escherichia coli DH52 by NCCLS method; format: functional
Staphylococcus aureus [2] = assay: Antibacterial activity against Staphylococcus aureus ATCC 25923 by NCCLS method; format: functional
Staphylococcus aureus [3] = assay: Ratio of chloromycin MIC to compound MIC for methicillin-resistant Staphylococcus aureus N315; format: functional
Staphylococcus aureus [4] = assay: Antibacterial activity against methicillin-resistant Staphylococcus aureus N315 by NCCLS method; format: functional
Aspergillus flavus [5] = assay: Antifungal activity against Aspergillus flavus by NCCLS method; format: functional
Saccharomyces cerevisiae = assay: Antifungal activity against Saccharomyces cerevisiae by NCCLS method; format: functional
Shigella dysenteriae = assay: Antibacterial activity against Shigella dysenteriae by NCCLS method; format: functional
Candida albicans = assay: Antifungal activity against Candida albicans by NCCLS method; format: functional
Micrococcus luteus = assay: Antibacterial activity against Micrococcus luteus ATCC 4698 by NCCLS method; format: functional
Aspergillus flavus [6] = assay: Ratio of Fluconazole MIC to compound MIC for Aspergillus flavus; format: functional

Structure (SMILES) | Ratio (Staphylococcus aureus [1]) | MIC (Pseudomonas aeruginosa) [µg/mL] | MIC (Salmonella typhi) [µg/mL] | MIC (Cyberlindnera jadinii) [µg/mL] | MIC (Escherichia coli) [µg/mL] | MIC (Staphylococcus aureus [2]) [µg/mL] | Ratio (Staphylococcus aureus [3]) | MIC (Staphylococcus aureus [4]) [µg/mL] | MIC (Aspergillus flavus [5]) [µg/mL] | MIC (Saccharomyces cerevisiae) [µg/mL] | MIC (Shigella dysenteriae) [µg/mL] | MIC (Candida albicans) [µg/mL] | MIC (Micrococcus luteus) [µg/mL] | Ratio (Aspergillus flavus [6])
CCOC(=O)c1cn(CC(O)Cn2cncn2)c2c(Cl)cc(Cl)cc2c1=O (racemic) | 8 | 4 (≈ 9.73 µM) | 4 (≈ 9.73 µM) | > 512 | 4 (≈ 9.73 µM) | 1 (≈ 2.43 µM) | 16 | 1 (≈ 2.43 µM) | 0.5 (≈ 1.22 µM) | 32 (≈ 77.8 µM) | 128 (≈ 311 µM) | 512 (≈ 1240 µM) | 8 (≈ 19.5 µM) | 
O=C(O)c1cn(CC(O)Cn2cncn2)c2c(F)cccc2c1=O (configuration not stated) |  | 8 (≈ 24.1 µM) | 64 (≈ 193 µM) | > 512 | 4 (≈ 12 µM) | 32 (≈ 96.3 µM) |  | 64 (≈ 193 µM) | 128 (≈ 385 µM) | 256 (≈ 770 µM) | 1 (≈ 3.01 µM) | 16 (≈ 48.2 µM) | 8 (≈ 24.1 µM) | 
O=C(O)c1cn(CC(O)Cn2cncn2)c2c(F)cc(F)cc2c1=O (configuration not stated) |  | 2 (≈ 5.71 µM) | 1 (≈ 2.85 µM) | > 512 | 2 (≈ 5.71 µM) | 2 (≈ 5.71 µM) |  | 8 (≈ 22.8 µM) | 256 (≈ 731 µM) | 512 (≈ 1460 µM) | 16 (≈ 45.7 µM) | 8 (≈ 22.8 µM) | 2 (≈ 5.71 µM) | 
CCOC(=O)c1cn(CC2CO2)c2ccc(F)cc2c1=O (racemic) |  | 128 (≈ 439 µM) | 8 (≈ 27.5 µM) | 256 (≈ 879 µM) | 64 (≈ 220 µM) | 32 (≈ 110 µM) |  | 4 (≈ 13.7 µM) | 1 (≈ 3.43 µM) | 2 (≈ 6.87 µM) | 64 (≈ 220 µM) | 16 (≈ 54.9 µM) | 512 (≈ 1760 µM) | 256
CCOC(=O)c1cn(CC(O)Cn2cncn2)c2cc(Cl)c(F)cc2c1=O (racemic) |  | 4 (≈ 10.1 µM) | 1 (≈ 2.53 µM) | > 512 | 32 (≈ 81.1 µM) | 64 (≈ 162 µM) |  | 4 (≈ 10.1 µM) | 16 (≈ 40.5 µM) | 512 (≈ 1300 µM) | 32 (≈ 81.1 µM) | 8 (≈ 20.3 µM) | 4 (≈ 10.1 µM) | 
CCOC(=O)c1cn(CC(O)Cn2cncn2)c2ccc(F)cc2c1=O (racemic) |  | 16 (≈ 44.4 µM) | 1 (≈ 2.78 µM) | 64 (≈ 178 µM) | 16 (≈ 44.4 µM) | 32 (≈ 88.8 µM) |  | 8 (≈ 22.2 µM) | 512 (≈ 1420 µM) | 512 (≈ 1420 µM) | 64 (≈ 178 µM) | 32 (≈ 88.8 µM) | 8 (≈ 22.2 µM) | 
CCn1cc(C(=O)O)c(=O)c2cc(F)c(N3CCNCC3)cc21 [NORFLOXACIN] |  | 1 (≈ 3.13 µM) | 4 (≈ 12.5 µM) | > 512 | 16 (≈ 50.1 µM) | 0.5 (≈ 1.57 µM) |  | 8 (≈ 25.1 µM) | > 512 | > 512 | 4 (≈ 12.5 µM) | > 512 | 2 (≈ 6.26 µM) | 
CCOC(=O)c1cn(CC(O)Cn2cncn2)c2c(F)cccc2c1=O (racemic) |  | 32 (≈ 88.8 µM) | 0.5 (≈ 1.39 µM) | > 512 | 8 (≈ 22.2 µM) | 64 (≈ 178 µM) |  | 128 (≈ 355 µM) | 512 (≈ 1420 µM) | 32 (≈ 88.8 µM) | 8 (≈ 22.2 µM) | 32 (≈ 88.8 µM) | 2 (≈ 5.55 µM) | 
CCOC(=O)c1cn(CC2CO2)c2c(F)cccc2c1=O (racemic) |  | 256 (≈ 879 µM) | 2 (≈ 6.87 µM) | > 512 | 16 (≈ 54.9 µM) | 2 (≈ 6.87 µM) |  | 2 (≈ 6.87 µM) | 0.5 (≈ 1.72 µM) | 4 (≈ 13.7 µM) | 512 (≈ 1760 µM) | 1 (≈ 3.43 µM) | > 512 | 256
OC(Cn1cncn1)(Cn1cncn1)c1ccc(F)cc1F [FLUCONAZOLE] |  | > 512 | > 512 | 8 (≈ 26.1 µM) | > 512 | > 512 |  | > 512 | 256 (≈ 836 µM) | 16 (≈ 52.2 µM) | > 512 | 1 (≈ 3.27 µM) | > 512 | 
O=C(O)c1cn(CC(O)Cn2cncn2)c2c(Cl)cc(Cl)cc2c1=O (configuration not stated) |  | 8 (≈ 20.9 µM) | 16 (≈ 41.8 µM) | > 512 | 64 (≈ 167 µM) | 64 (≈ 167 µM) |  | 4 (≈ 10.4 µM) | 256 (≈ 668 µM) | 128 (≈ 334 µM) | 4 (≈ 10.4 µM) | 32 (≈ 83.5 µM) | 64 (≈ 167 µM) | 
CCOC(=O)c1cn(CC2CO2)c2c(F)cc(F)cc2c1=O (racemic) |  | 64 (≈ 207 µM) | 2 (≈ 6.47 µM) | > 512 | 128 (≈ 414 µM) | 16 (≈ 51.7 µM) |  | 8 (≈ 25.9 µM) | 1 (≈ 3.23 µM) | 64 (≈ 207 µM) | > 512 | 4 (≈ 12.9 µM) | 2 (≈ 6.47 µM) | 256
